Test results taken from the NIST ThermoML archive (doi:10.1021/je7006742).

Key:
[1] = xn = mol fraction of the nth substance listed; settings: 101 kPa, Liquid
[2] = 101 kPa, Liquid

C=CC#N [acrylonitrile] + O=CC=Cc1ccccc1
[1], x1 = 1
Settings | mass density [kg/m3] | viscosity [mPa·s]
298.15 K | 794 | 0.344
308.15 K | 788 | 0.307
318.15 K | 783 | 0.284

C=CC#N [acrylonitrile] + COc1ccc(C=O)cc1
[1], x1 = 1
Settings | mass density [kg/m3] | viscosity [mPa·s]
298.15 K | 794 | 0.344
308.15 K | 788 | 0.307
318.15 K | 783 | 0.284

COc1ccc(C=O)cc1 [4-methoxybenzaldehyde]
[2]
Settings | mass density [kg/m3] | viscosity [mPa·s]
298.15 K | 1120 | 3.706
308.15 K | 1112 | 2.83
318.15 K | 1105 | 2.232

O=Cc1ccccc1 [benzaldehyde]
[2]
Settings | mass density [kg/m3] | viscosity [mPa·s]
298.15 K | 1041 | 1.399
308.15 K | 1034 | 1.224
318.15 K | 1027 | 1.12

COc1ccc(C=O)cc1 [4-methoxybenzaldehyde] + C=CC#N
[1]
Settings | mass density, 298.15 K [kg/m3] | mass density, 308.15 K [kg/m3] | mass density, 318.15 K [kg/m3] | speed of sound, 298.15 K [m/s] | viscosity, 298.15 K [mPa·s] | viscosity, 308.15 K [mPa·s] | viscosity, 318.15 K [mPa·s]
x2 = 0 | 1120 | 1112 | 1105 | – | 3.706 | 2.83 | 2.232
x2 = 0.222 | 1079 | 1072 | 1066 | 1446.6 | 2.035 | 1.828 | 1.53
x2 = 0.391 | 1040 | 1034 | 1029 | 1384.8 | 1.341 | 1.226 | 1.095
x2 = 0.524 | 1003 | 997 | 992 | 1345.8 | 0.865 | 0.852 | 0.798
x2 = 0.631 | 968 | 962 | 957 | 1310 | 0.742 | 0.678 | 0.644
x2 = 0.72 | 934 | 930 | 924 | 1277.6 | 0.55 | 0.538 | 0.515
x2 = 0.794 | 903 | 898 | 893 | 1244.6 | 0.545 | 0.469 | 0.443
x2 = 0.857 | 873 | 868 | 864 | 1217.8 | 0.415 | 0.404 | 0.39
x2 = 0.911 | 845 | 840 | 835 | 1201.6 | 0.435 | 0.369 | 0.37
x2 = 0.958 | 819 | 813 | 808 | – | 0.379 | 0.333 | 0.322
x2 = 0.959 | – | – | – | 1186.8 | – | – | –

C=CC#N [acrylonitrile]
[2]
Settings | mass density [kg/m3] | viscosity [mPa·s]
298.15 K | 794 | 0.344
308.15 K | 788 | 0.307
318.15 K | 783 | 0.284

C=CC#N [acrylonitrile] + O=Cc1ccccc1
[1]
Settings | mass density, 298.15 K [kg/m3] | mass density, 308.15 K [kg/m3] | mass density, 318.15 K [kg/m3] | speed of sound, 298.15 K [m/s] | viscosity, 298.15 K [mPa·s] | viscosity, 308.15 K [mPa·s] | viscosity, 318.15 K [mPa·s]
x1 = 0.182 | 1022 | 1011 | 1005 | 1412.7 | 1.224 | 1.071 | 0.973
x1 = 0.333 | 995 | 985 | 980 | 1394.7 | 1.079 | 0.941 | 0.851
x1 = 0.462 | 969 | 959 | 954 | 1353.1 | 0.958 | 0.827 | 0.746
x1 = 0.571 | 940 | 932 | 928 | 1322.4 | 0.842 | 0.724 | 0.653
x1 = 0.667 | 914 | 906 | 902 | 1292.8 | 0.74 | 0.63 | 0.571
x1 = 0.75 | 887 | 880 | 877 | 1259.4 | 0.649 | 0.55 | 0.5
x1 = 0.824 | 863 | 856 | 854 | 1237.6 | 0.565 | 0.478 | 0.436
x1 = 0.889 | 839 | 833 | 830 | 1212 | 0.484 | 0.416 | 0.379
x1 = 0.947 | 816 | 810 | 806 | 1186.8 | 0.41 | 0.358 | 0.328
x1 = 1 | 794 | 788 | 783 | – | 0.344 | 0.307 | 0.284

O=CC=Cc1ccccc1 [(E)-3-phenyl-2-propanal] + C=CC#N
[1]
Settings | mass density, 298.15 K [kg/m3] | mass density, 308.15 K [kg/m3] | mass density, 318.15 K [kg/m3] | speed of sound, 298.15 K [m/s] | viscosity, 298.15 K [mPa·s] | viscosity, 308.15 K [mPa·s] | viscosity, 318.15 K [mPa·s]
x2 = 0 | 1046 | 1039 | 1032 | – | 3.478 | 2.688 | 2.296
x2 = 0.2168 | 1017 | 1011 | – | – | 2.014 | 1.698 | –
x2 = 0.217 | – | – | 1009 | 1487.6 | – | – | 1.456
x2 = 0.3837 | 990 | 985 | – | – | 1.4 | 1.215 | –
x2 = 0.384 | – | – | 983 | 1433.3 | – | – | 1.078
x2 = 0.516 | – | – | 957 | 1403 | – | – | 0.83
x2 = 0.5163 | 964 | 958 | – | – | 1.02 | 0.906 | –
x2 = 0.624 | – | – | 930 | 1372 | – | – | 0.684
x2 = 0.6241 | 937 | 931 | – | – | 0.795 | 0.724 | –
x2 = 0.7135 | 911 | 905 | – | – | 0.646 | 0.603 | –
x2 = 0.714 | – | – | 904 | 1330.3 | – | – | 0.581
x2 = 0.7889 | 886 | 881 | – | – | 0.56 | 0.519 | –
x2 = 0.789 | – | – | 878 | 1288.7 | – | – | 0.457
x2 = 0.853 | – | – | 854 | 1251.2 | – | – | 0.43
x2 = 0.8532 | 862 | 856 | – | – | 0.474 | 0.441 | –
x2 = 0.9088 | 839 | 833 | – | – | 0.423 | 0.405 | –
x2 = 0.909 | – | – | 830 | 1224.1 | – | – | 0.394
x2 = 0.957 | – | – | 805 | 1186.8 | – | – | 0.348
x2 = 0.9573 | 817 | 810 | – | – | 0.388 | 0.359 | –

O=CC=Cc1ccccc1 [(E)-3-phenyl-2-propanal]
[2]
Settings | mass density [kg/m3] | viscosity [mPa·s]
298.15 K | 1046 | 3.478
308.15 K | 1039 | 2.688
318.15 K | 1032 | 2.296

O=Cc1ccccc1 [benzaldehyde] + C=CC#N
[1], x2 = 0
Settings | mass density [kg/m3] | viscosity [mPa·s]
298.15 K | 1041 | 1.399
308.15 K | 1034 | 1.224
318.15 K | 1027 | 1.12
